Data on two compounds can be found in patent US8609432B2, “Method and kit for detection of autoimmune chronic urticaria” (priority 2005, dated 2013).

Assay [1] deals with basophils (CD203c/IgE positive cells) in donor whole blood. Put plainly: Measurement of CD203c surface expression on donor basophils by flow cytometry. It is filed as cell-based, human. Particulars: positive controls, donor heparinized whole blood incubated 10 minutes at 37° C.; above buffer baseline; mean ±SEM, n=4. How it is done:
Whole blood from seven normal individuals was screened and one donor was identified based on the marked upregulation of CD203c on basophils (CD203c/IgE positive cells) in response to fMLP and anti-FcεRIα antibody.
The test was carried out on heparinized blood within 3-4 hours after drawing the donor's blood. Two hundred μL aliquots of the donor's heparinized whole blood were incubated for 10 minutes at 37° C. with 40 μL of sera from CU patients, normal controls, or IgG depleted sera. For controls, 40 μL basophil stimulation buffer (20 mM HEPES, 125 mM NaCl, 5 mM KCl, 2.5 mM CaCl2, 1 mM MgCl2, 0.5 mM glucose, and 0.1% BSA, pH 7.4) was added to 200 μL of donor's blood and used as the negative control while 40 μL of […] f-Met-Leu-Phe (fMLP, Sigma, St. Louis, Mo.) and 40 μL of a 1:50 dilution of anti-FcεRIα receptor antibody (Upstate, Charlottesville, Va.) in Ca++ and Mg++ free phosphate buffered saline (PBS) were used as positive controls. […] The cells were then analyzed on a FACSCalibur flow cytometer (Becton Dickinson, San Jose, Calif.).
Basophils from whole blood were identified by the presence of CD203c on high expressing IgE positive cells (FIGS. 1A and 1B). The data are expressed as the mean fluorescence intensity or the percentage of CD203c expression. […] This was determined by defining an M1 region on the histogram analysis (FIG. 1C).
(Flow cytometry measures light scatter and fluorescence of single cells or particles in a stream.)

Assay [2] concerns basophils, CD203c expression. Particulars: cited from earlier work.
Assay [3] concerns basophils, CD63 expression. Particulars: cited from earlier work.

f-Met-Leu-Phe [fMLP]: the “mean percent basophil CD203c expression” value in assay [1] is 34.5%±14.6. For `CCCCC[C@H](O)/C=C/[C@H]1C(=O)C[C@H](O)[C@@H]1C/C=C\CCCC(=O)O` [PGD2], in assay [2], the “induction of CD203c expression” value is listed as “strong inducer”. Further, in assay [3], the “stimulation of CD63 expression” value is listed as “does not stimulate”.
